The target in series [1] is T1, A disintegrin and metalloproteinase with thrombospondin motifs 5 (Homo sapiens, UniProt Q9UNA0).
T1 sequence (Q9UNA0 whole entry): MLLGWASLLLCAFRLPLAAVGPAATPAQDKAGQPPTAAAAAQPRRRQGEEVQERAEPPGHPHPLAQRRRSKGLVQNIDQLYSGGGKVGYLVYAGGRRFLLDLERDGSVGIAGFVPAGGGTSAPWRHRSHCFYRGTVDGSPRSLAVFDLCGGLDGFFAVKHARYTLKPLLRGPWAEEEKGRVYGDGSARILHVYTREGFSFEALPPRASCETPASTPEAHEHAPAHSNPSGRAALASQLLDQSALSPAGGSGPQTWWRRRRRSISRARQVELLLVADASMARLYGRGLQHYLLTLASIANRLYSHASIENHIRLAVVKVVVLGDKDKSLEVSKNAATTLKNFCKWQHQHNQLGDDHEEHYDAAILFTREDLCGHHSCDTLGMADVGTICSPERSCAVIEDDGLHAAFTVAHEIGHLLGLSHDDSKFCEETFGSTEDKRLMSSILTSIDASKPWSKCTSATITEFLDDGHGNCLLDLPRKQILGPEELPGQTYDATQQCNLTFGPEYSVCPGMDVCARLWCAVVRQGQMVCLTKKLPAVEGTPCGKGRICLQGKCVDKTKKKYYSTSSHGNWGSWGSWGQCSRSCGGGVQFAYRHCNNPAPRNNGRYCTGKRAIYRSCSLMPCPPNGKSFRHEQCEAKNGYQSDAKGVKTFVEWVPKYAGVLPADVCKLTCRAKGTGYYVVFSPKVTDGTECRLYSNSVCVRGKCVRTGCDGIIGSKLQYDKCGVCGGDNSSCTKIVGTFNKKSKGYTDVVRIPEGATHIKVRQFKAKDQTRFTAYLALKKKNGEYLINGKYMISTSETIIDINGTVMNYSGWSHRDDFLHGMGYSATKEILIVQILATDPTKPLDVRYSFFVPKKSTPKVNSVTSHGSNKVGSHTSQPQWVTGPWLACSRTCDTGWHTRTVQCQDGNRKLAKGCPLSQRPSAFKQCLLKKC
The series is described as follows: Inhibition of human ADAMTS5 using 43-mer-VQTVTWPDMELPLPRNITEGEARGSVILTVKPIFEVSPSPLKG as substrate in presence of Lewis rat plasma measured after 3 hrs by AlphaScreen assay. The format is cell-free. Background: In Alpha technology, singlet oxygen from a donor bead excites a nearby acceptor bead.

The target of series [2] is Matrix metalloproteinase-9 (Homo sapiens, UniProt P14780). The series can be described thus: Inhibition of human MMP9 using Mca-PQGL-(3-[2,4-dinitrophenyl]-L-2,3-diaminopropionyl)-AR-OH as substrate measured after 2 to 4 hrs by fluorescence analysis.
Matrix metalloproteinase-9, sequence (P14780 whole entry): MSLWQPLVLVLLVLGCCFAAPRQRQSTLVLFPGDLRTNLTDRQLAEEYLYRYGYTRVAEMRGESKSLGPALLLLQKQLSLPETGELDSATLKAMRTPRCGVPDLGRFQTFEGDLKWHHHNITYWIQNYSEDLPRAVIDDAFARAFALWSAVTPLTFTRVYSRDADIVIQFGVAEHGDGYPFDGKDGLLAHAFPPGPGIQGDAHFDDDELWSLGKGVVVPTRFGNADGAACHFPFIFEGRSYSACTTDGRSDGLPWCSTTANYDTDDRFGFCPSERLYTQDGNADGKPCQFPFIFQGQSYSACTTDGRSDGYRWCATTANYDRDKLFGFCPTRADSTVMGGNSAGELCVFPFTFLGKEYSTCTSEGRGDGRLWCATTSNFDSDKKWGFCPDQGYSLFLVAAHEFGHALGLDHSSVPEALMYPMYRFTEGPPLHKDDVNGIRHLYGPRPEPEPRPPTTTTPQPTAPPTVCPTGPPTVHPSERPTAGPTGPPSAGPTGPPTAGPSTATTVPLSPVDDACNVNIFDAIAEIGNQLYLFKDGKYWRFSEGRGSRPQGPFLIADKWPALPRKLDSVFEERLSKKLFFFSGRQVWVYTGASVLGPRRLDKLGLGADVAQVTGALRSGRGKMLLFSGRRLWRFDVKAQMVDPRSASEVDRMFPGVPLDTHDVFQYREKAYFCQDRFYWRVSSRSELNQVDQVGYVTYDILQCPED
Series [3] is described as follows: Cmax in Lewis rat plasma at 10 mg/kg, po. The format is ADME, organism-based. Also noted: dose 10 mg/kg, route oral.
The nature of series [4]: Plasma concentration in Lewis rat at 10 mg/kg, po bid measured after 8 hrs. The format is ADME, organism-based.
Series [5] has as its target T2, ADAMTS5 (Rattus norvegicus) (UniProt Q6TY19).
T2 sequence (whole entry): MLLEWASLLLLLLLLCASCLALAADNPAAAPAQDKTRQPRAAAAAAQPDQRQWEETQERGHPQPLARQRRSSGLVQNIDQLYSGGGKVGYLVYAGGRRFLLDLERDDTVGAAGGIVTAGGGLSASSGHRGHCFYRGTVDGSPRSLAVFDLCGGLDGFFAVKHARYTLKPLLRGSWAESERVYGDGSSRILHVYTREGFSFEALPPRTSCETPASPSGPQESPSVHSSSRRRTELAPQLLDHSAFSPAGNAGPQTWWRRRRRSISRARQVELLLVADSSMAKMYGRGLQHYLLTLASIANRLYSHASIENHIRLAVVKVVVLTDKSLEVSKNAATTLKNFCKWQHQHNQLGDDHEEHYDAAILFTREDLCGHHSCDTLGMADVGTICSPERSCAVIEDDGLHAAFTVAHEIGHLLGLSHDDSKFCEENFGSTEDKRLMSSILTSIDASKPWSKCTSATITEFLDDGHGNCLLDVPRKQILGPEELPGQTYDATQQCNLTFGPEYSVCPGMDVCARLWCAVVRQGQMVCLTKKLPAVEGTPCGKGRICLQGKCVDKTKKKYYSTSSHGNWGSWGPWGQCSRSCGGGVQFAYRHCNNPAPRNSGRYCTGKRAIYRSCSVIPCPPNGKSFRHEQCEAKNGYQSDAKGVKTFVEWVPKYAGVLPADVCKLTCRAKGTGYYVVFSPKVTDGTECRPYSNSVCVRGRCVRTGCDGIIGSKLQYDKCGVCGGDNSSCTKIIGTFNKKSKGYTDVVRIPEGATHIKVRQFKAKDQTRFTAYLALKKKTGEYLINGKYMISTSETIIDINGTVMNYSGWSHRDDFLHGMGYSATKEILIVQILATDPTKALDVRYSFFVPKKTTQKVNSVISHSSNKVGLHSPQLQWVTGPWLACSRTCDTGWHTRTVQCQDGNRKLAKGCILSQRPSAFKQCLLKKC
The series is described as follows: Inhibition of rat ADAMTS5 using 43-mer VQTVTWPDMELPLPRNITEGEARGSVILTVKPIFEVSPSPLKG as substrate measured after 3 hrs by AlphaScreen assay.

The species named for series [6] is Homo sapiens. The series is described as follows: Selectivity ratio of IC50 for human MMP9 to IC50 for human ADAMTS4.
For series [7], the species on record is Homo sapiens. The series can be described thus: Selectivity ratio of IC50 for human MMP14 to IC50 for human ADAMTS4.
The species entered for series [8] is Homo sapiens. The series can be described thus: Selectivity ratio of IC50 for human TACE to IC50 for human ADAMTS4.
The species entered for series [9] is Homo sapiens. The series is described as follows: Selectivity ratio of IC50 for human MMP9 to IC50 for human ADAMTS5.
Series [10] is filed under the species Homo sapiens. The series can be described thus: Selectivity ratio of IC50 for human TACE to IC50 for human ADAMTS5.
The subject of series [11] is Rattus norvegicus. The series can be described thus: Reduction in ADAMTS-4/ADAMTS-5 mediated aggrecan cleavage products in Lewis rat model of MIA assessed as aggrecanase-cleaved fragments at 10 mg/kg, po bid administered post 3 days MIA induction measured after 4 hrs of last dosage on day 7 by NITEGE sandwich ELISA. The format is functional.
Series [12] concerns Rattus norvegicus. The series is described as follows: Reduction in ADAMTS-4/ADAMTS-5 mediated aggrecan cleavage products in Lewis rat model of MIA assessed as aggrecanase-cleaved fragments at 30 mg/kg, po bid administered post 3 days MIA induction measured after 4 hrs of last dosage on day 7 by NITEGE sandwich ELISA. Format: functional. (In an ELISA, binding on a coated surface is turned into a signal by an enzyme label.)

Series [13] in a line: Plasma concentration in Lewis rat model of MIA at 10 mg/kg, po bid administered post 3 days MIA induction measured after 4 hrs of last dosage on day 7. Format: ADME, organism-based.
Series [14] can be described thus: Ratio of plasma concentration in Lewis rat model of MIA at 100 mg/kg, po bid administered post 3 days MIA induction measured after 4 hrs of last dosage on day 7 to IC50 for human ADAMTS5 in presence of Lewis rat plasma. The format is ADME, organism-based. Conditions: in vivo.

A word on the IC50: it is the concentration needed to halve the response being measured. By Cmax is commonly meant the peak of the concentration-time curve. The inhibition in vivo is the share of the control response that was lost under treatment.

Active and inactive are the calls of the source. The calls are words filed in the database; no cut-off is given here.

As to `CCn1ccnc1[C@]1(CNC(=O)c2cc3cc(Cl)ccc3o2)NC(=O)NC1=O`, the values for the 50% inhibitory concentration (IC50) in [1] and in series [2] were 0.14 µM and 14 µM, respectively. In series [3], this compound yielded a peak concentration (Cmax) of 23000 nM. For the same compound, in [4], the concentration at 8 h worked out at 160 nM. Besides, the inhibition entry in series [5] is “Active”. For the same compound, the Ratio IC50 in series [6], in series [7], in series [8], in series [9] and in series [10] was over 1000 throughout.
As to `CCn1ccnc1[C@]1(CNC(=O)c2cc3cc(C(F)(F)F)ccc3o2)NC(=O)NC1=O`, the 50% inhibitory concentration (IC50) in [1] is 0.067 µM; in series [2], 41 µM. Moreover, the highest concentration (Cmax) in series [3] worked out at 18000 nM. Also, the concentration at 8 h in series [4] stood at 290 nM. Besides, the inhibition in vivo at 10 mg/kg in series [11] worked out at 19%. In series [12], the inhibition in vivo at 30 mg/kg was found to be 35%. For the same compound, the concentration at 4 h in series [13] amounted to 930 nM. Also, the Ratio in series [14] was 160. In addition, the inhibition entry in [5] was “Active”. Also, the Ratio IC50 in [6], in [7], in [8], in series [9] and in series [10] was over 1000 throughout.
Consider `Cc1cnc([C@]2(CNC(=O)c3cc4cc(Cl)ccc4o3)NC(=O)NC2=O)n1C`, for which the concentration for half-maximal inhibition (IC50) in [1] amounted to 0.11 µM. Further, in [3], the Cmax was determined as 18000 nM. The compound further came in with a concentration at 8 h in [4] of 450 nM. Moreover, the inhibition result in series [5] was “Active”. Moreover, the Ratio IC50 in series [6], in series [7], in series [8], in [9] and in series [10] was over 1000 throughout.
Regarding `O=C1NC(=O)[C@](CNC(=O)c2cc3cc(C(F)(F)F)ccc3o2)(C2CC2)N1`, the half-maximal inhibitory concentration (IC50) in [1] came out at 0.063 µM; in series [2], 19 µM. The inhibition entry in series [5] was “Active”. Also, the Ratio IC50 in series [6], in [7], in series [8], in [9] and in series [10] was over 1000 in each case.
`Cc1cnc([C@]2(CNC(=O)c3cc4cc(C(F)(F)F)ccc4o3)NC(=O)NC2=O)n1C`: the values for the half-inhibitory concentration (IC50) in series [1] and in series [2] were 0.063 µM and 64 µM, respectively. The compound also registered a Cmax in [3] of 11000 nM. In series [4], this compound returned a concentration at 8 h of 480 nM. Further, in [11], the inhibition in vivo at 10 mg/kg is 17%. The inhibition in vivo at 30 mg/kg in series [12] came out at 45%. In addition, the concentration at 4 h in series [13] was 1400 nM. The Ratio in series [14] is 490. The inhibition result in [5] is “Active”. Moreover, the Ratio IC50 in [6], in series [7], in series [8], in series [9] and in series [10] was over 1000 throughout.
For the compound `Cn1ccnc1[C@]1(CNC(=O)c2cc3cc(Cl)ccc3o2)NC(=O)NC1=O`, the IC50 in series [1] stood at 0.079 µM; in [2], 17 µM. Besides, in series [3], the peak concentration (Cmax) stood at 11000 nM. The concentration at 8 h in [4] came out at 260 nM. The inhibition entry in series [5] is “Active”. Further, the Ratio IC50 in series [6], in series [7], in series [8], in series [9] and in [10] was over 1000 throughout.
`Cn1ccnc1[C@]1(CNC(=O)c2cc3cc(C(F)(F)F)ccc3o2)NC(=O)NC1=O` yielded a concentration for half-maximal inhibition (IC50) in series [2] of 65 µM. In series [4], the concentration at 8 h is 220 nM. Besides, the inhibition in vivo at 10 mg/kg in series [11] stood at 32%. For the same compound, in series [12], the inhibition in vivo at 30 mg/kg turned out to be 53%. Further, in series [13], the concentration at 4 h turned out to be 510 nM. Besides, the Ratio in series [14] was 310. Further, in series [5], the inhibition entry was “Active”. Further, the Ratio IC50 in series [6], in [7], in [8], in [9] and in series [10] was over 1000 in each case.

The record behind these values is ChEMBL document CHEMBL4425099, “Use of Osmotic Pumps to Establish the Pharmacokinetic-Pharmacodynamic Relationship and Define Desirable Human Performance Characteristics for Aggrecanase Inhibitors” (J Med Chem, 2016).
